Results: patent US12012411B2, “Viral replication inhibitors” (Katholieke Universiteit Leuven, priority 2011, dated 2024)

These compounds were tested on DENV-2 NGC (assay: Antiviral activity against DENV-2 NGC in Vero-B cells (viral RNA load by RT-qPCR)). Settings: Dengue virus, DENV2, Vero B, DENV-2 in Vero-B cells; inhibition of viral RNA replication by 50% (Table 3).
Type: cell-based, Dengue virus
For COc1cccc(NC(C(=O)c2c[nH]c3ccccc23)c2cc3ccccn3n2)c1 (centres unmarked) [CPD-083], the EC50 was 30 nM.
With COc1cccc(NC(C(=O)c2c[nH]c3ccc(F)cc23)c2ccccc2)c1 (centres unmarked) [CPD-119] the EC50 was 30 nM.
In the case of COc1cccc(NC(C(=O)c2c[nH]c3cc(F)ccc23)c2ccccc2)c1 (centres unmarked) [CPD-123], the EC50 is reported as 50 nM.
COc1cccc(NC(C(=O)c2c[nH]c3ccccc23)c2ccc(C)cc2)c1 (centres unmarked) [CPD-139] gave an EC50 of 20 nM.
In the case of COc1cccc(NC(C(=O)c2c[nH]c3ccccc23)c2ccc(F)cc2)c1 (centres unmarked) [CPD-149], the EC50 is reported as 30 nM.
In the case of COc1cccc(NC(C(=O)c2c[nH]c3ccccc23)c2ccc(C)nc2)c1 (centres unmarked) [CPD-226], the EC50 is reported as 70 nM.
COc1cccc(NC(C(=O)c2c[nH]c3cccc(F)c23)c2ccccc2)c1 (centres unmarked) [CPD-230] was tested, and the EC50 was 120 nM.
Compound COc1cc(NC(C(=O)c2c[nH]c3ccccc23)c2ccc(F)cc2)cc(OC)c1 (centres unmarked) [CPD-235] has an EC50 of 4 nM.
Compound CCOc1cc(NC(C(=O)c2c[nH]c3ccccc23)c2ccccc2)cc(OC)c1 (centres unmarked) [CPD-254] has an EC50 of 20 nM.
COc1cc(CO)cc(NC(C(=O)c2c[nH]c3ccccc23)c2ccccc2)c1 (centres unmarked) [CPD-262] was tested, and the EC50 was 60 nM.

What follows are compounds tested on uninfected quiescent Vero-B cells (assay: Cytotoxic assay in uninfected quiescent Vero-B cells (MTS/PMS)). Settings: 4 days (Table 3).
COc1cccc(NC(C(=O)c2c[nH]c3ccccc23)c2cc3ccccn3n2)c1 (centres unmarked) [CPD-083] showed a CC50 of 26000 nM.
In the case of COc1cccc(NC(C(=O)c2c[nH]c3ccc(F)cc23)c2ccccc2)c1 (centres unmarked) [CPD-119], the CC50 is reported as 13000 nM.
With COc1cccc(NC(C(=O)c2c[nH]c3cc(F)ccc23)c2ccccc2)c1 (centres unmarked) [CPD-123] the CC50 was 15000 nM.
COc1cccc(NC(C(=O)c2c[nH]c3ccccc23)c2ccc(C)cc2)c1 (centres unmarked) [CPD-139] gave a CC50 of 20000 nM.
Work on COc1cccc(NC(C(=O)c2c[nH]c3ccccc23)c2ccc(F)cc2)c1 (centres unmarked) [CPD-149] yielded a CC50 of 14000 nM.
COc1cccc(NC(C(=O)c2c[nH]c3ccccc23)c2ccc(C)nc2)c1 (centres unmarked) [CPD-226] was tested, and the CC50 was 73000 nM.
COc1cccc(NC(C(=O)c2c[nH]c3cccc(F)c23)c2ccccc2)c1 (centres unmarked) [CPD-230] showed a CC50 of 21000 nM.
Compound COc1cc(NC(C(=O)c2c[nH]c3ccccc23)c2ccc(F)cc2)cc(OC)c1 (centres unmarked) [CPD-235] has a CC50 of 13000 nM.
In the case of CCOc1cc(NC(C(=O)c2c[nH]c3ccccc23)c2ccccc2)cc(OC)c1 (centres unmarked) [CPD-254], the CC50 is reported as 13000 nM.
COc1cc(CO)cc(NC(C(=O)c2c[nH]c3ccccc23)c2ccccc2)c1 (centres unmarked) [CPD-262] was tested, and the CC50 was 71000 nM.

These compounds were tested on DENV-4 strain Dak HD 34 460 (assay: Antiviral activity against DENV-4 in Vero-B cells (viral RNA load by RT-qPCR)). Settings: Dengue virus, DENV4, Vero B.
Type: cell-based, Dengue virus
For COc1cccc(NC(C(=O)c2c[nH]c3ccccc23)c2cc3ccccn3n2)c1 (centres unmarked) [CPD-083], the EC50 was 2520 nM.
With COc1cccc(NC(C(=O)c2c[nH]c3ccc(F)cc23)c2ccccc2)c1 (centres unmarked) [CPD-119] the EC50 was 2910 nM.
Work on COc1cccc(NC(C(=O)c2c[nH]c3cc(F)ccc23)c2ccccc2)c1 (centres unmarked) [CPD-123] yielded an EC50 of 2640 nM.
In the case of COc1cccc(NC(C(=O)c2c[nH]c3ccccc23)c2ccc(C)cc2)c1 (centres unmarked) [CPD-139], the EC50 is reported as 3810 nM.
COc1cccc(NC(C(=O)c2c[nH]c3ccccc23)c2ccc(F)cc2)c1 (centres unmarked) [CPD-149] gave an EC50 of 5720 nM.
Work on COc1cccc(NC(C(=O)c2c[nH]c3ccccc23)c2ccc(C)nc2)c1 (centres unmarked) [CPD-226] yielded an EC50 of 8640 nM.
COc1cccc(NC(C(=O)c2c[nH]c3cccc(F)c23)c2ccccc2)c1 (centres unmarked) [CPD-230] showed an EC50 of 2560 nM.
Work on COc1cc(NC(C(=O)c2c[nH]c3ccccc23)c2ccc(F)cc2)cc(OC)c1 (centres unmarked) [CPD-235] yielded an EC50 of 3020 nM.
Compound CCOc1cc(NC(C(=O)c2c[nH]c3ccccc23)c2ccccc2)cc(OC)c1 (centres unmarked) [CPD-254] has an EC50 of 1150 nM.
Compound COc1cc(CO)cc(NC(C(=O)c2c[nH]c3ccccc23)c2ccccc2)c1 (centres unmarked) [CPD-262] has an EC50 of 8490 nM.

The compounds below were run on DENV-3 strain H87 prototype (assay: Antiviral activity against DENV-3 in Vero-B cells (viral RNA load by RT-qPCR)). Settings: Dengue virus, DENV3, Vero B.
Type: cell-based, Dengue virus
Compound COc1cccc(NC(C(=O)c2c[nH]c3ccccc23)c2cc3ccccn3n2)c1 (centres unmarked) [CPD-083] has an EC50 of 710 nM.
For COc1cccc(NC(C(=O)c2c[nH]c3ccc(F)cc23)c2ccccc2)c1 (centres unmarked) [CPD-119], the EC50 was 1740 nM.
COc1cccc(NC(C(=O)c2c[nH]c3cc(F)ccc23)c2ccccc2)c1 (centres unmarked) [CPD-123] showed an EC50 of 2560 nM.
With COc1cccc(NC(C(=O)c2c[nH]c3ccccc23)c2ccc(C)cc2)c1 (centres unmarked) [CPD-139] the EC50 was 460 nM.
With COc1cccc(NC(C(=O)c2c[nH]c3ccccc23)c2ccc(F)cc2)c1 (centres unmarked) [CPD-149] the EC50 was 4010 nM.
Compound COc1cccc(NC(C(=O)c2c[nH]c3ccccc23)c2ccc(C)nc2)c1 (centres unmarked) [CPD-226] has an EC50 of 810 nM.
For COc1cccc(NC(C(=O)c2c[nH]c3cccc(F)c23)c2ccccc2)c1 (centres unmarked) [CPD-230], the EC50 was 3530 nM.
For COc1cc(NC(C(=O)c2c[nH]c3ccccc23)c2ccc(F)cc2)cc(OC)c1 (centres unmarked) [CPD-235], the EC50 was 270 nM.
Work on CCOc1cc(NC(C(=O)c2c[nH]c3ccccc23)c2ccccc2)cc(OC)c1 (centres unmarked) [CPD-254] yielded an EC50 of 800 nM.
COc1cc(CO)cc(NC(C(=O)c2c[nH]c3ccccc23)c2ccccc2)c1 (centres unmarked) [CPD-262] showed an EC50 of 6730 nM.

Each compound was assayed on DENV-1 Djibouti strain D1/H/IMTSSA/98/606 (assay: Antiviral activity against DENV-1 in Vero-B cells (viral RNA load by RT-qPCR)). Settings: Dengue virus, DENV1, Vero B.
Type: cell-based, Dengue virus
COc1cccc(NC(C(=O)c2c[nH]c3ccccc23)c2cc3ccccn3n2)c1 (centres unmarked) [CPD-083] was tested, and the EC50 was 540 nM.
COc1cccc(NC(C(=O)c2c[nH]c3ccc(F)cc23)c2ccccc2)c1 (centres unmarked) [CPD-119] was tested, and the EC50 was 690 nM.
COc1cccc(NC(C(=O)c2c[nH]c3cc(F)ccc23)c2ccccc2)c1 (centres unmarked) [CPD-123] showed an EC50 of 1600 nM.
COc1cccc(NC(C(=O)c2c[nH]c3ccccc23)c2ccc(C)cc2)c1 (centres unmarked) [CPD-139] was tested, and the EC50 was 650 nM.
COc1cccc(NC(C(=O)c2c[nH]c3ccccc23)c2ccc(F)cc2)c1 (centres unmarked) [CPD-149] gave an EC50 of 2880 nM.
COc1cccc(NC(C(=O)c2c[nH]c3ccccc23)c2ccc(C)nc2)c1 (centres unmarked) [CPD-226] showed an EC50 of 920 nM.
With COc1cccc(NC(C(=O)c2c[nH]c3cccc(F)c23)c2ccccc2)c1 (centres unmarked) [CPD-230] the EC50 was 350 nM.
COc1cc(NC(C(=O)c2c[nH]c3ccccc23)c2ccc(F)cc2)cc(OC)c1 (centres unmarked) [CPD-235] gave an EC50 of 90 nM.
Work on CCOc1cc(NC(C(=O)c2c[nH]c3ccccc23)c2ccccc2)cc(OC)c1 (centres unmarked) [CPD-254] yielded an EC50 of 670 nM.
COc1cc(CO)cc(NC(C(=O)c2c[nH]c3ccccc23)c2ccccc2)c1 (centres unmarked) [CPD-262] gave an EC50 of 2330 nM.
